According to US11352374B2 (University of Alaska Anchorage, priority 2015, dated 2022):

Experiments:
[1] = system: LPS-induced TNF-α production in RAW264.7 cells; assay: LPS-induced TNF-α production with CORCB plus H2O2; format: cell-based, mouse
Protocol: RAW264.7 cells at the density of 2×10^4 cells per well in 96-well plate were treated with varying concentrations of CORCB plus different concentrations of H2O2.

[2] = CO released in the presence of Fenton reagent (hydroxyl radical), CO meter; format: physicochemical; details: per 5 minutes
Protocol: (§1) A test to confirm that CO is one of the decomposition products from CORCBs is done by utilizing commercially available CO meter. Four mole of the compounds at the concentrations of 6-12 mg/mL in aqueous solution was incubated at 37° C. in a sealed vessel with 50 mL gas space. CO meter was used to read the concentration of liberated CO gas from the solution. Measurement by CO meter in ppm, after converting to the micromole amount, was used for calculating the percent CO released based on the original amount of compound.
All amine carboxyboranes express a faster CO release rate when incubated with the reactive oxygen species. The two tested are the common ROS formed naturally in the cells—a non-radical hydrogen peroxide (H2O2) and Fenton reagent which is a more reactive hydroxyl radical (.OH) formed from Fe^2+ and H2O2. Four mole of CORCB compounds were mixed in an aqueous solution with ROS and incubated in a sealed vessel. At respective times, the head space air was injected into the meter to read the amount of CO produced. For analysis by NMR spectroscopy, the reaction mixture was prepared in NMR tube in D2O solvent and incubated for the amount of time indicated. While some CORCBs have increased amount of CO produced when treated with 3 times equivalents of H2O2, CORCB-1 produces similar or less amount of CO. In every sample, either acid or salt form, the hydroxyl radical extracts the amount of CO to a much higher magnitude within a very short amount of time.

physchem = assay: physchem
Protocol: The kinetics of compound decomposition was followed by observing the ratio of the amount of free amine group to the original compound using ^1H NMR. For instance, Hexamethylenetetramine carboxyborane (CORCB-1) in D2O at the concentration of 12 mg/mL was incubated at 37° C. in the standard NMR tube. ^1H NMR spectra were obtained at different time points to study the kinetics of product formation. […] The ratio of integrated peaks were used for determining the percent of each species present and plotted as a function of time to show the kinetics of auto-decomposition.
^1H, ^11B, and ^13C NMR spectra were recorded at different time points to study the kinetics as well as to observe transformation of CORCB-1 into the products.
In order to determine whether CO is produced in physiological condition, CORCB acid forms were dissolved in aqueous solution at neutral pH. The solution was then subjected to incubation at 37° C. for extended period of time. For studies using NMR, CORCBs were dissolved in D2O. The kinetics of CORCB molecules breaking down to produce CO is determined by taking ^1H NMR spectra at various time points (FIG. 3).
CORCB sodium and ammonium salts were also tested for decomposition by using ^1H NMR spectroscopy. Samples were set up as in Example 1 and rate of decomposition measured (FIG. 4).

[3] = system: normal fibroblast cells (Hs 895.Sk); assay: Anti-tumor effect of CORCB-1 in the presence of ROS, normal cells; format: cell-based, human; details: 1 mM CORCB-1 + 0.2 mM H2O2, 6 days
Protocol: (§2) To further test the anti-tumor effect of CORCBs in the presence of ROS, fibroblast tumor cells (Hs 895.T) and normal fibroblast cells (Hs 895.Sk) were incubated with 1 mM of CORCB-1 and 0.2 mM of H2O2 mixed in the DMEM media without FBS. Media was exchanged every 2 days for longer incubation periods such as 4 and 6 days. […] Both tumor and normal cells are close to 100% viable at 2 days, but for longer treatment periods, tumor cells growth rate declines and normal cell growth remains steady. […] Normal cells are preserved under stressed condition while tumor cells are destroyed.

[4] = as above; format: cell-based, human; details: human, Hs 895.Sk normal fibroblast cells; 1 mM CORCB-1 + 0.2 mM H2O2, 2 days; read-out: % viable normal cells at 2 days
Protocol: as §2

horse Mb = assay: Myoglobin (Mb) assay: deoxy-Mb to carboxy-Mb; format: biochemical; details: in one hour; 69 μM deoxy-Mb, 50× excess compound, 37° C.; compound per FIG. 2 legend
Protocol: Since there was no literature that reported the use of CO meter with CO releasing molecules, to further confirm that CORCBs release CO, Mb assay was performed using the standard procedure used with other CO releasing compounds. In brief, 1 mM horse Mb in 50 mM sodium phosphate buffer (pH 7.4) was deoxygenated using 3 equivalents of sodium dithionite. Excess dithionite was removed by desalting column. Deoxy-Mb at the concentration of 69 μM was mixed with CORM (50× excess) and incubated in 37° C. Visible spectra in the range of 550-600 nm were recorded at every 10 minutes. Overlaid spectra of these samples show a gradual transformation of deoxy-Mb to carboxy-Mb (FIG. 2). The percent CO released calculated was approximately 1% in one hour.

[5] = CO generated at different pHs, CO meter; format: physicochemical; details: compound per FIG. 10 legend
Protocol: FIG. 10 graphically depicts the percent CO generated by CORCB-1 in different pHs monitored by the CO meter. CORCB was dissolved in water with adjusted pH before incubation in 37° C. After 12 hours, CO gas in the head space was analyzed using a CO meter.
CO releasing property of CORCBs is not limited only to the neutral environment. It works in any pH ranging from 2 to 12 as evident in FIG. 10. […] CO is released at the highest amount in the acidic condition of pH 2 with more than 25% in 12 hours.

[6] = system: fibroblast tumor cells (Hs 895.T) and normal fibroblast cells (Hs 895.Sk)
Protocol: Cells were seeded at the density of 3×10^3 cells per well in 96-well plate with different concentrations of CORCBs in DMEM media without FBS, and incubated at 37° C. with 5% CO2 for 2 days.

[7] = CO released in the presence of H2O2, CO meter; format: physicochemical
Protocol: as §1
(§3) The two tested are the common ROS formed naturally in the cells—a non-radical hydrogen peroxide (H2O2) and Fenton reagent which is a more reactive hydroxyl radical (.OH) formed from Fe^2+ and H2O2. Four mole of CORCB compounds were mixed in an aqueous solution with ROS and incubated in a sealed vessel. At respective times, the head space air was injected into the meter to read the amount of CO produced. For analysis by NMR spectroscopy, the reaction mixture was prepared in NMR tube in D2O solvent and incubated for the amount of time indicated.

[8] = system: normal human skin fibroblast cells (Hs 895.Sk); details: CORCB-1 (3 mM) + imatinib 20 or 40 μM, day 4 and 6
Protocol: This was tested by using a chemotherapy drug, imatinib, in normal human skin fibroblast cells (Hs 895.Sk). The cultures were treated with 20 μM and 40 μM concentration of imatinib as controls to see their toxicity. Samples with mixtures of CORCB-1 and imatinib were also incubated and cell viability was determined on 2, 4, and 6 days. Media was exchanged every 2 days with fresh reagents.

[9] = Decomposition (amine release) in the presence of H2O2 monitored by 1H NMR; format: physicochemical
Protocol: as §3
The reaction with H2O2 is slow-acting, therefore, NMR spectroscopy can be used for monitoring the rate.

[10] = CO released on auto-decomposition in water at 37° C., head space measured with CO meter; format: physicochemical
Protocol: as §1
CO liberated from the molecules and coming out to the head space are detected and quantified by using CO meter.

[11] = system: LPS-induced TNF-α production in mouse macrophage cells (RAW264.7); assay: Inhibition of LPS-induced TNF-α production (ELISA); format: cell-based
Protocol: To test the anti-inflammatory effect of CORCBs, mouse macrophage cells (RAW264.7) were used. 2×10^4 cells per well was seeded in 96-well plate with different concentrations of CORCBs. Cells were incubated in DMEM with 10% FBS at 37° C. and 5% CO2 for 24 hours. LPS (100 ng/mL) was then added and incubated for 4 additional hours. The media containing secreted inflammatory cytokines were collected and these cells were subjected to cell viability test to check their viability. TNF-α concentration in each sample was measured by ELISA assay.

[12] = 24 hours, 1.5 equivalents H2O2, 37° C.

SMILES: O=C(O)B[N+]12CN3CN(CN(C3)C1)C2 [CORCB-1, Hexamethylenetetramine carboxyborane]
- amount of TNF-α secreted, together with H2O2 [1]: about 25%
- Rate of % CO released by CORCBs, With Fenton Reagent [2]: 60.90 ± 0.52%
- half-life at 12 mg/mL (physchem): 84 h
- Decomposition rate at 24 hours, 1H NMR, Autodecomposition (physchem; 24 hours, 37° C.): 19%
- rate of auto-decomposition (physchem; as stated in Example 10): around 20 % per day
- rate of decomposition (physchem; in the beginning, acid form, D2O, 37° C.): 0.85 % per hour
- cell viability after the TNF-α assay (in words) (RAW264.7 cells): all cells were still healthy
- normal cell growth, 6th day [3]: 89%
- viability at 2 days, 1 mM [4]: ~100%
- percent CO released (Mb assay) (horse Mb): approximately 1%
- CO released at pH 2 ([5]; pH 2, 12 hours, 37° C.): more than 25%
- CO release rate as a function of pH (in words) ([5]; pH 2 to 12, 12 hours): the lowest in pH 7
- selectivity of growth stimulation (in words) ([6]; Hs 895.Sk versus Hs 895.T, 48 hours): more selective towards the normal fibroblast cells
- viable cells compared with untreated cells ([6]; human, 48 h): ~180%
- % CO produced by CO meter with H2O2 ([7]; 1.5 equivalents H2O2, 24 hours): 12%
- CO release rate at 24 hours, CO meter, With 1.5x H2O2 [7, 12]: 12.10%
- Rate of % CO released by CORCBs, With H2O2 ([7]; per 24 hour, H2O2 equivalents not given): 20.86 ± 0.82%
- survival rate, mixture of imatinib and CORCB-1 [8]: around 70%
- % decomposition / free amine released by 1H NMR with H2O2 ([9]; 1.5 equivalents H2O2, 24 hours): 51%
- Decomposition rate at 24 hours, 1H NMR, With 1.5x H2O2 [9, 12]: 50.90%
- CO release rate ([10]; 37° C.): approximately 1 % per hour
- % CO liberated at 24 hours by CO meter ([10]; 24 hours, 37° C.): 23%
- CO release rate at 24 hours, CO meter, Autodecomposition ([10]; 24 hours, 37° C.): 24%
- Rate of % CO released by CORCBs, Autodecomposition ([10]; per 24 hour): 23.47 ± 0.38%
- amount of TNF-α secreted, compound alone ([11]; 1 mM, LPS only = 100%): about 80%
- effect on LPS-induced TNF-α production (in words) ([11]; 24 hours compound, then LPS 100 ng/mL 4 hours): inhibits the production of TNF-α
